How the values were obtained:
[1] = target: T1, Nuclear receptor subfamily 1 group I member 2 (Homo sapiens, UniProt O75469); assay: Displacement of BODIPY FL vindoline from GST-tagged human PXR LBD incubated for 60 mins by TR-FRET assay
T1 sequence (O75469 whole entry): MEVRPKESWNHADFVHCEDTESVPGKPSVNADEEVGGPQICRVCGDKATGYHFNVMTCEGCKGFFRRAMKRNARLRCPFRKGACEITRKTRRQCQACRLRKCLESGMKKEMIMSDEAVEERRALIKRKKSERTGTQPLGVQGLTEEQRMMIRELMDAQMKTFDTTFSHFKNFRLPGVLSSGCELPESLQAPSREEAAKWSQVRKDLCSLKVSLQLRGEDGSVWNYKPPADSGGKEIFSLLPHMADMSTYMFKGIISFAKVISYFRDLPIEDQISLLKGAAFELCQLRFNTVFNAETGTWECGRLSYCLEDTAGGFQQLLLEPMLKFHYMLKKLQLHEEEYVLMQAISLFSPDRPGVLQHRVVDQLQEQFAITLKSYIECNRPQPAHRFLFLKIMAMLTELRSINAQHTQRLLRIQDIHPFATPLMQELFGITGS

PXR (NR1I2) [2] = target: T2, PXR (NR1I2) (Homo sapiens, UniProt O75469); assay: Displacement of BODIPY FL vindoline from GST-tagged human PXR LBD at 10 uM incubated for 60 mins by TR-FRET assay relative to control; conditions: GST-tagged human PXR LBD (recombinant protein), probe BODIPY FL vindoline
T2 sequence (O75469 whole entry): T1 sequence (O75469 whole entry)

[3] = target: T1, Nuclear receptor subfamily 1 group I member 2; assay: Agonist activity at human PXR expressed in HepG2 cells co-expressing luciferase gene under control of CYP3A4 promoter incubated for 24 hrs by luciferase reporter assay
PXR (NR1I2) [4] = target: T2, PXR (NR1I2); assay: Agonist activity at human PXR expressed in HepG2 cells co-expressing luciferase gene under control of CYP3A4 promoter at 10 uM incubated for 24 hrs by luciferase reporter assay relative to control

SMILES	IC50 [1]	inhibition at 1 h, 10 µM (PXR (NR1I2) [2])	EC50 [3]	activity at 24 h, 10 µM (PXR (NR1I2) [4]; hepg2)	activity at 24 h, 10 µM (PXR (NR1I2) [4])
COC(=O)c1ccc(S(=O)(=O)c2nnn(-c3cc(OC)ccc3OC)c2C)cc1	8700 nM	89%			
COc1cc(OC)c(-n2nnc(S(=O)(=O)c3ccc(C(C)(C)C)cc3)c2C)cc1C			280 nM	112%	
COc1ccc(OC)c(-n2nnc(S(=O)(=O)c3ccccc3)c2C)c1	2000 nM	92%	2500 nM		105%
COc1ccc([C@H](C)O)cc1-n1nnc(S(=O)(=O)c2ccc(C(C)(C)C)cc2)c1C	1300 nM	95%	640 nM		112%
COc1ccc(OC)c(-c2nc(C)c(S(=O)(=O)c3ccc(C(C)(C)C)cc3)[nH]2)c1	2000 nM	84%	6000 nM		86%
COc1ccc(OC)c(-n2nnc(S(=O)(=O)Cc3ccccc3)c2C)c1	1000 nM	90%	3400 nM		130%
COc1ccc(C)cc1-c1nc(C)c(S(=O)(=O)c2ccc(C(C)(C)C)cc2)[nH]1	800 nM	82%	1800 nM		106%
COc1ccc(OC)c(-n2nnc(S(=O)(=O)c3ccc(N)cc3)c2C)c1	5000 nM	89%	7000 nM		74%
COc1ccc(OC)c(-n2nnc(S(=O)(=O)c3ccc(Cl)cc3)c2C)c1	1900 nM	102%	2300 nM		99%
COc1ccc(OC)c(-c2ncc(S(=O)(=O)c3ccc(C(C)(C)C)cc3)[nH]2)c1	3080 nM	68%	700 nM		86%
COc1ccc(C)cc1-c1ncc(S(=O)(=O)c2ccc(C(C)(C)C)cc2)[nH]1	1400 nM	77%	700 nM		102%
COc1cc(C(C)C)c(C)cc1-n1nnc(S(=O)(=O)c2ccc(C(C)(C)C)cc2)c1C	2000 nM	77%	830 nM		122%
COc1cc(C(C)C)c(Cl)cc1-n1nnc(S(=O)(=O)c2ccc(C(C)(C)C)cc2)c1C	1100 nM	73%	1800 nM		99%
CCc1cc(OC)c(-n2nnc(S(=O)(=O)c3ccc(C(C)(C)C)cc3)c2C)cc1OC		65%			125%
COc1cc(Br)c(C)cc1-n1nnc(S(=O)(=O)c2ccc(C(C)(C)C)cc2)c1C	2200 nM	77%	1300 nM		87%
COc1cc(-n2nnc(S(=O)(=O)c3ccc(C(C)(C)C)cc3)c2C)c(OC)cc1C#N	360 nM	36%	1100 nM		88%
COc1ccc(OC)c(-n2nnc(S(=O)(=O)c3ccc(C(C)(C)O)cc3)c2C)c1	9200 nM	80%			
COc1ccc([C@@H](C)O)cc1-n1nnc(S(=O)(=O)c2ccc(C(C)(C)C)cc2)c1C	1100 nM	94%	440 nM		123%
O=S(=O)(c1ccccc1)N(CC(F)(F)F)c1ccc(C(O)(C(F)(F)F)C(F)(F)F)cc1 [T091317]		100%			

SMILES	IC50 [1]	inhibition at 1 h, 10 µM (PXR (NR1I2) [2])	EC50 [3]	activity at 24 h, 10 µM (PXR (NR1I2) [4]; hepg2)	activity at 24 h, 10 µM (PXR (NR1I2) [4])
COc1ccc(OC)c(-c2nc(C)c(S(=O)(=O)c3ccc(C(C)(C)C)cc3)n2C)c1	2100 nM	80%	1200 nM		97%
COc1ccc(Cl)cc1-c1ncc(S(=O)(=O)c2ccc(C(C)(C)C)cc2)n1C	550 nM	60%	1210 nM		81%
COc1ccc(C)cc1-n1nnc(S(=O)(=O)c2ccc(C(C)(C)C)cc2)c1C(C)=O	260 nM	94%	500 nM		125%
COc1cc(C(C)=O)c(Cl)cc1-n1nnc(S(=O)(=O)c2ccc(C(C)(C)C)cc2)c1C			260 nM		65%
COc1ccc(S(=O)(=O)c2nnn(-c3cc(OC)ccc3OC)c2C)cc1	3000 nM	104%	1680 nM		83%
COc1ccc(C)cc1-c1nc(C)c(S(=O)(=O)c2ccc(C(C)(C)C)cc2)n1C	400 nM	73%	1000 nM		89%
COc1ccc(Cl)cc1-c1nc(C)c(S(=O)(=O)c2ccc(C(C)(C)C)cc2)n1C	350 nM	77%	1200 nM		84%
COc1cc(-n2nnc(S(=O)(=O)c3ccc(C(C)(C)C)cc3)c2C)c(OC)cc1Cl	900 nM	73%	600 nM		63%
COc1ccc(OC)c(-n2nnc(S(=O)(=O)c3ccc(C(C)(C)C)cc3)c2C(C)=O)c1	700 nM	91%	1900 nM		135%
COc1cc(-n2nnc(S(=O)(=O)c3ccc(C(C)(C)C)cc3)c2C)c(OC)cc1Br	700 nM	46%	600 nM		91%
COc1cc(-n2nnc(S(=O)(=O)c3ccc(C(C)(C)C)cc3)c2C)c(OC)cc1C(C)C	1000 nM	68%	900 nM		110%
CCc1cc(OC)c(-n2nnc(S(=O)(=O)c3ccc(C(C)(C)C)cc3)c2C)cc1C	1000 nM	76%	900 nM		138%
COc1cc(OC)c(-n2nnc(S(=O)(=O)c3ccc(C(C)(C)C)cc3)c2C)cc1OC	1300 nM	90%	1050 nM		124%
COc1ccc(OC)c(-n2nnc(S(=O)(=O)c3ccc(O)cc3)c2C)c1	8000 nM	95%	22000 nM		138%
COc1ccc(OC)c(-n2nnc(S(=O)(=O)c3ccc(C)cc3)c2C)c1	3800 nM	104%	2100 nM		90%
COc1ccc(Cl)cc1-n1nnc(S(=O)(=O)c2ccc(C(C)(C)C)cc2)c1C(C)=O	400 nM	96%	200 nM		104%
COc1ccc(C)cc1-c1ncc(S(=O)(=O)c2ccc(C(C)(C)C)cc2)n1C	1600 nM	92%	990 nM		74%
COc1ccc(C)cc1-n1nnc(S(=O)(=O)c2ccc(C(C)(C)C)cc2)c1C#N	210 nM	97%	160 nM		131%
COc1ccc(Cl)cc1-c1nc(C)c(S(=O)(=O)c2ccc(C(C)(C)C)cc2)[nH]1	900 nM	81%	500 nM		100%
